Literature values, collected in US6916479B2, “Compositions containing an antifungal and a phospholipid” (Janssen Pharmaceutica N.V., priority 1997, dated 2005).

Conditions: prior art medicated shampoo

SMILES | number of patients not responding to particular medicated shampoo
CC(=O)N1CCN(c2ccc(OCC3COC(Cn4ccnc4)(c4ccc(Cl)cc4Cl)O3)cc2)CC1 (centres unmarked) [ketoconazole] | up to 30%
S=[Se]=S [selenium sulfide] | up to 40%
